Source: patent US20230077723A1, “N-SUBSTITUTED-3,4-(FUSED 5-RING)-5-PHENYL-PYRROLIDINE-2-ONE COMPOUNDS AS INHIBITORS OF ISOQC AND/OR QC ENZYME” (Scenic Immunology B.V., priority 2019, published 2023)
Read-outs that look alike come from different tables or passages of the source.

Experiments:
human isoQC (S53-L382) = molecular target: T1, human isoQC (S53-L382) (Homo sapiens, UniProt Q9NXS2); test: Assay 1 - isoQC inhibition, fluorescent enzymatic assay (single concentration); format: biochemical; settings: isoQC inhibition at 250 nM test compound; read-out: isoQc Inh. Assay No. 1
T1 construct: enzymatically active region of human isoQC (S53-L382; see, e.g., Huang et al., 2011); GST-Enterokinase site (N, cleaved yes); made in house; host or cells: E. coli
T1 sequence (Q9NXS2 53-382): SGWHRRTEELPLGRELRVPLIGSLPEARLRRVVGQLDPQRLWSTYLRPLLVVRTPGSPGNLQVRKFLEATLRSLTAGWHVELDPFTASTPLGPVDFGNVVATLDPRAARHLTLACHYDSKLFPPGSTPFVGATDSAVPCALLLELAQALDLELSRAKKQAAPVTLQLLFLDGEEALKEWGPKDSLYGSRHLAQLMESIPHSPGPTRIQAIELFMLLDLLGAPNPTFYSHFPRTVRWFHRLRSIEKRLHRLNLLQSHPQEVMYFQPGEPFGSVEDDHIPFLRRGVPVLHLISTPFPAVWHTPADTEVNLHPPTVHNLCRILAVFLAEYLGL
Experimental: Initially, isoQC inhibitory activity was measured at a single concentration in a fluorescent-based assay (Assay 1 below). In order to establish the inhibitory activity more quantitatively, IC50 values were obtained using a mass spectrometry-based assay where pyroglutamylation by either isoQC or QC was measured (Assays 2 and 4, respectively, below). Alternatively, IC50 values for isoQC or QC were obtained using a fluorescence-based assay (Assays 3 and 5 respectively, below).
The Golgi luminal, enzymatically active region of human isoQC (S53-L382; see, e.g., Huang et al., 2011) was obtained by expression in E. coli of an N-terminally GST-Enterokinase and C-terminally 6×His tagged construct in the pET41(+) vector and subsequent purification using talon beads and GST beads, enterokinase digestion and further purification with a final formulation in 25 mM Tris pH 8.0/150 mM NaCl/1 mM TCEP. Absence of pyroglutamylating activity in an enzymatic dead variant that was cloned, expressed, and purified in parallel ruled out that the purification strategy isolates any endogenously present pyroglutamylating activity.
Pyroglutamylation was measured by conversion of glutamine-4-amino-7-methylcoumarine (H-Gln-AMC, Bachem) to pyroglutamyl-AMC, which is subsequently a specific substrate for pyroglutamylaminopeptidase (pGAPase, Qiagen), releasing free AMC which can be fluorescently detected. For a typical inhibition assay, 15 μL 20 μM h-Gln-AMC (diluted from a 40 mM stock dissolved in 25 mM HEPES using 50 mM Tris-HCl pH 8.0) was pipetted into a 96-well plate on ice. Next, 7.5 μL 1 μM test compound (diluted from a 10 mM stock dissolved in DMSO using 50 mM Tris-HCl) was added. Finally, 7.5 μL, 3 ng/μL recombinant isoQC enzyme was added and the reaction mixture was incubated for 1 hour at 37° C. A 5 minute incubation at 98° C. was then performed to denature the isoQC enzyme and stop the reaction.
To detect the amount of pyroglutamyl-AMC formed, a 96-well plate was prepared with 25 μL 0.125 U/mL pGAPase enzyme diluted in 50 mM Tris-HCl pH 8.0 containing 10 mM dithiothreitol (DTT). 25 μL of the pyroglutamylation reaction mixture was transferred into the plate containing the pGAPase solutions while on ice. Once done, the plate was moved over to a Spectramax ID3 fluorescent plate-reader to monitor and record the maximum fluorescence at 380 nm excitation/450 nm emission over a period of 20 minutes while keeping the temperature at 37° C.
DMSO concentrations during the assay never exceeded 1% and activities were compared to controls containing only the same amount of DMSO and no test compound. […] Test compounds were reported as active when <40% of background corrected signal was measured as compared to DMSO controls.

[1] = tested on: pyroglutamylated CD47 (pE-CD47) in KBM7 cells; test: Assay 6 - cell-based potency assay (pE-CD47 CC2C6 staining vs total CD47); design: species or system human; settings: Homo sapiens, KBM-7, 72 h, CC2C6 signal
Experimental: Cells were spun for 4 minutes at 1500 rpm and washed once with PBS/0.5% BSA. Cells were spun down again and the supernatant was removed and incubated in 100 uL antibody staining solution (PBS/0.5% BSA/0.1 μg/mL DAPI (4′,6-diamidino-2-phenylindole, ThermoFisher Scientific) and a mixture of 1:500 FITC-conjugated anti-human CD47 clone 2D3, which recognizes total CD47 irrespective of its pyroglutamylation state, and 1:500 Alexa647-conjugated anti-human CD47 clone CC2C6, which specifically detects pyroglutamylated CD47) for 2 hours at 4° C. Next, the cells were spun down and washed twice with 2×150 μL PBS/0.5% BSA to remove unbound antibody. Cells were again spun down and taken up in 300 μL FACS buffer before analysis on a Celesta FACS machine (BD Biosciences).
KBM7 cells (Kotecki et al., 1999) were infected with lentivirus produced by transfecting pSCNC-LentiCRISPR-QPCTL or pSCNC-LentiCRISPR-CD47 into HEK-293T cells according to standard protocols. After 24 hours incubation, cells were selected with puromycin (Invivogen, 1 μg/mL) for 48 hours. Cells were stained for total CD47 and pE-CD47 and QPCTL k.o. cells were sorted out as negative for pE-CD47, and CD47 k.o. cells as negative for total CD47, using a FACSAria III and FACS Diva software (BD Biosciences).
In order to test compounds for their effect on pyroglutamylation in live cells, 25000 KBM7 cells per well were seeded in a 96-well U-bottom plate in 150 μl IMDM/10% FCS/1% Pen/Strep medium and a 10-point 2-fold dilution range of test compounds. After 72 hours incubation at 37° C., 5% CO2, cells were stained for total CD47 and pE-CD47 and analyzed on a BD Celesta using FACS Diva software (BD Biosciences). Cells gated for DAPI negativity were recorded and the median fluorescence intensity (MFI) of each sample was transformed to linearly scale between the MFI's of wildtype and CD47 knockout cells (in case of the 2D3 antibody) and the wildtype and QPCTL knockout cells (in case of the CC2C6 antibody). IC50's were calculated by 3 parameter logistic regression of the CC2C6 signal vs. compound concentration, where the top of the sigmoidal curve was fixed at 1, using R and the drc package (http://www.r-project.org, https://cran.r-project.org/web/packages/drc/index.html).

[2] = read-out: Cell Pot. Assay No. 6
[3] = Table 2, read-out: Cell Potency Assay 6 (Comparison Data)

CCCOc1ccc(C2c3c(nn(CC(F)(F)F)c3C)C(=O)N2c2ccc3[nH]cnc3c2)cc1 (stereo not shown) [FRPPO-037]
inhibition at 0.25 µM (human isoQC (S53-L382)): > 40%
IC50 [1, 2]: 1000 to 5000 nM

CC(C)c1c2c(nn1C)C(=O)N(c1ccc3[nH]cnc3c1)C2c1ccc(N2CCC(F)(F)C2)cc1F (stereo not shown) [FRPPO-152A]
IC50 [1, 2]: < 1000 nM

CCCOc1ccc(C2c3c(C)nn(C)c3C(=O)N2c2ccc3[nH]cnc3c2)cc1 (stereo not shown) [FRPPO-002]
IC50 [1, 2]: 1000 to 5000 nM

Cc1c2c(nn1C)C(=O)N(c1ccc3[nH]cnc3c1)C2c1ccc(N2C3CCC2COC3)cc1F (stereo not shown) [FRPPO-093]
IC50 [1, 2]: 1000 to 5000 nM

Cc1nn(C)c2c1C(c1ccc(N3CCC(F)(F)C3)cc1F)N(c1ccc3[nH]cnc3c1)C2=O (stereo not shown) [FRPPO-170]
IC50 [1, 2]: 1000 to 5000 nM

Cc1nn(C)c2c1C(c1ccc(OCCC(F)F)c(F)c1F)N(c1ccc3[nH]cnc3c1)C2=O (stereo not shown) [FRPPO-167]
IC50 [1, 2]: 1000 to 5000 nM

CCCOc1ccc(C2c3c(nn(C)c3C)C(=O)N2c2ccc3[nH]cnc3c2)cc1 (racemic) [FRPPO-001]
IC50 [1, 3]: < 1000 nM
IC50 [1, 2]: < 1000 nM

Cc1c2c(nn1C)C(=O)N(c1ccc3[nH]cnc3c1)C2c1ccc(N2CCOC(C(F)(F)F)C2)cc1F (stereo not shown) [FRPPO-109]
IC50 [1, 2]: < 1000 nM

Cc1c2c(nn1C)C(=O)N(c1ccc3[nH]cnc3c1)C2c1ccc(N2CC(C)NC(C)C2)cc1F (stereo not shown) [FRPPO-100]
IC50 [1, 2]: 5000 to 50000 nM

O=C1c2scnc2C(c2ccc(N3CCC(F)(F)C3)cc2F)N1c1ccc2[nH]cnc2c1 (stereo not shown) [FRPPO-054]
IC50 [1, 2]: 1000 to 5000 nM

Cc1c2c(nn1C)C(=O)N(c1ccc3[nH]cnc3c1)C2c1ccc(N2CCC(F)(F)C2)c(F)c1F (stereo not shown) [FRPPO-154]
IC50 [1, 2]: < 1000 nM

Cc1nn(C)c2c1C(c1ccc(-c3cnn(C(F)(F)F)c3)cc1)N(c1ccc3[nH]cnc3c1)C2=O (stereo not shown) [FRPPO-175]
IC50 [1, 2]: < 1000 nM

Cc1c2c(nn1C)C(=O)N(c1ccc3[nH]cnc3c1)C2c1ccc(-c2csc(C(F)(F)F)n2)cc1F (stereo not shown) [FRPPO-146]
IC50 [1, 2]: < 1000 nM

Cc1c2c(nn1C)C(=O)N(c1ccc3[nH]cnc3c1)C2c1ccc(N2CCN(C)CC2)cc1F (stereo not shown) [FRPPO-083]
IC50 [1, 2]: 1000 to 5000 nM

CCCOc1ccc(C2c3c(nn(C)c3C)C(=O)N2c2cc(C)c3nnn(C)c3c2)cc1 (racemic) [REF-002, reference compound]
IC50 [1, 3]: > 6250 nM

O=C1c2ncsc2C(c2ccc(Cl)cc2F)N1c1ccc2[nH]cnc2c1 (stereo not shown) [FRPPO-063]
IC50 [1, 2]: 1000 to 5000 nM

Cc1c2c(nn1C)C(=O)N(c1ccc3[nH]cnc3c1)C2c1ccc(-c2cnc(C(F)(F)F)s2)cc1F (stereo not shown) [FRPPO-144]
IC50 [1, 2]: < 1000 nM
